The text below walks through data of ChEMBL document CHEMBL3856245, “New labdane diterpenoids from Croton laui and their anti-inflammatory activities” (Bioorg Med Chem Lett, 2016).

Data set [1] can be described thus: Cytotoxicity against mouse RAW264.7 cells assessed as reduction in cell viability after 48 hrs by MTT assay. The data set is classed as toxicity. In general terms: Formazan colour is commonly taken as a measure of viable cells.
In a further data set the test system is RAW264.7. In words: Selectivity index, ratio of CC50 for mouse RAW264.7 cells to antiinflammatory IC50 for mouse RAW264.7 cells. The data set is classed as functional.
Data set [2] is described as follows: Antiinflammatory activity in mouse RAW264.7 cells assessed as inhibition of LPS-induced NO production after 24 hrs in presence of LPS by Griess reagent based assay. The data set is classed as functional, cell-based. The note with it: RAW264.7, 24 h. A general note: Griess reagent forms a coloured azo dye with nitrite.

As a reminder, the CC50 is the concentration giving 50% cytotoxicity. The term IC50 denotes the point on the concentration scale where inhibition reaches its midpoint. Take `C/C(C=O)=C\C[C@H]1[C@](C)(O)[C@@H](O)C[C@H]2C(C)(C)CCC[C@@]21C`: the CC50 at 48 h in data set [1] was above 100 µM. Besides, the “Ratio CC50/IC50” value in the data set with RAW264.7 is recorded as above 1.1. Moreover, the IC50 in data set [2] worked out at 93 µM.
For `CC1=CC(=O)O[C@]12C[C@@H]1[C@@]3(C)CCCC(C)(C)[C@@H]3C[C@H](O)[C@@]1(C)O2` the same measures were above 100 µM, above 2 and 49.6 µM.
Consider `CC1=CC(=O)O[C@@]12C[C@@H]1[C@@]3(C)CCCC(C)(C)[C@@H]3C[C@H](O)[C@@]1(C)O2`, for which the CC50 at 48 h in data set [1] was above 100 µM. Besides, the “Ratio CC50/IC50” value with RAW264.7 is reported as above 2.2. In data set [2], the IC50 amounted to 44.6 µM.
The like results for `C/C(=C\CO)[C@H]1C[C@@H]2[C@@]3(C)CCCC(C)(C)[C@@H]3C[C@H](O)[C@@]2(C)O1` were, in that order, above 100 µM, above 2.3 and 42.7 µM.
The like results for `C=C/C(C)=C/C[C@H]1[C@](C)(O)[C@@H](O)C[C@H]2C(C)(C)CCC[C@@]21C` were, in that order, 94.5 µM, 1.9 and 49.3 µM.
Take `COc1ccc2c(c1)c(CC(=O)O)c(C)n2C(=O)c1ccc(Cl)cc1` [INDOMETHACIN]: in data set [1], the CC50 at 48 h was above 200 µM. Also, the “Ratio CC50/IC50” value in the data set with RAW264.7 is recorded as above 12.1. For the same molecule, in data set [2], the IC50 came out at 16.5 µM.
